# “Also recorded” adds a separate entry of the source. Square brackets hold non-standard residues; d marks the D form. Ends that are not written are not given here. dOrn = NCCC[C@@H](N)C(=O)O; Orn = NCCC[C@H](N)C(=O)O; Aib = CC(C)(N)C(=O)O
# How the values were obtained:
# microorganisms [1] = assay: Targeting peptide binding to target microorganisms (Tables 3, 10, 12); details: microorganism(s) the targeting peptide binds, preferably 1x PBS
# microorganisms [2] = assay: Morphology, biofilm and growth disrupting peptides (Table 5); format: cell-based; parameters: key: A: Peptide aggregates; B: Less hyphal formation; Clumps; Diffuse clumps and small polyps; F: Diffuse growth; H: Thin; I: Growth inhibition; Microcolony formation; Rippled; Small polyps; Thick; W: Halo formation on top, microlonies on bottom
# Description: In certain embodiments peptides that induce alterations in phenotype or other biological activities can also be used as antimicrobial effector moieties.
# [3] = binding in aqueous buffers varied with peptide solubility
# [4] = binding in aqueous buffers that varied with peptide solubility
Substance,Target(s) (microorganisms [1]; [3]),further results
PF-643 (chain 1 VRCRL; chain 2 VRCRL; Peptide with targeting and/or antimicrobial activity),Mycobacteria spp,"Organism, effect (microorganisms [2]; E. faecalis): E. faecalis (R); Organism, effect (microorganisms [2]; MRSA): MRSA (C); Organism, effect (microorganisms [2]; S. pneumoniae): S. pneumoniae (R)"
PF-644 (chain 1 TSGLIIGENGLNGL; chain 2 TSGLIIGENGLNGL; Peptide with targeting and/or antimicrobial activity),Mycobacteria spp,"Organism, effect (microorganisms [2]; S. pneumoniae): S. pneumoniae (H)"
PF-645 (chain 1 SNSVQQG; chain 2 SNSVQQG; Peptide with targeting and/or antimicrobial activity),Mycobacteria spp,"Organism, effect (microorganisms [2]; C. albicans): C. albicans (B); Organism, effect (microorganisms [2]; S. pneumoniae): S. pneumoniae (I)"
PF-646 (chain 1 APASPGRRPG; chain 2 APASPGRRPG; Peptide with targeting and/or antimicrobial activity),Mycobacteria spp,"Organism, effect (microorganisms [2]; C. albicans): C. albicans (B); Organism, effect (microorganisms [2]; S. pneumoniae): S. pneumoniae (H)"
PF-785 (MRPQHSPAGKAFVVKKITHEQS; Peptide with targeting and/or antimicrobial activity),Mycobacteria spp.,–
PF-786 (LSERERRRLKRGII; Peptide with targeting and/or antimicrobial activity),Mycobacteria spp.,–
PF-787 (MTERQRRALLKQHPEVVSWSDYLEKRKRRTGTAG; Peptide with targeting and/or antimicrobial activity),Mycobacteria spp.,–
PF-788 (GLITVFAGTARILQLRRAAKKTHAAALR; Peptide with targeting and/or antimicrobial activity),Mycobacteria spp.,–
PF-789 (PRGAQSGHG; Peptide with targeting and/or antimicrobial activity),Mycobacteria spp.,–
PF-790 (PAGPDHLDQRDHR; Peptide with targeting and/or antimicrobial activity),Mycobacteria spp.,–
PF-791 (IFLTTQNTDYSEHNAA; Peptide with targeting and/or antimicrobial activity),S. mutans,–
PF-792 (ALHASGIQAI; Peptide with targeting and/or antimicrobial activity),S. mutans,–
PF-793 (YTQ[Aib]NNASAYAMLLTNKDTVP; ends and bridges not checked),S. mutans,–
PF-794 (NLYFENQGN; Peptide with targeting and/or antimicrobial activity),S. mutans,–
PF-795 (ALHKSGIQVIADWVPDQIYN; Peptide with targeting and/or antimicrobial activity),S. mutans,–
PF-796 (YTQSNIPTAYALMLSNKDSI; Peptide with targeting and/or antimicrobial activity),S. mutans,–
PF-797 (WYYFDNNGYM; Peptide with targeting and/or antimicrobial activity),S. mutans,–
PF-798 (ALHSKGIKVMADWVPDQMYA; Peptide with targeting and/or antimicrobial activity),S. mutans,–
PF-799 (YTHYNTALSYALLLTNKSSVP; Peptide with targeting and/or antimicrobial activity),S. mutans,–
PF-800 (WYYFDNNGYM; Peptide with targeting and/or antimicrobial activity),S. mutans,–
PF-C003 (FCSVDHDVITIAADHVKQGAEA; Peptide with targeting and/or antimicrobial activity),A. naeslundii; also recorded: P. gingivalis; also recorded: S. mutans,–
PF-C008 (AQPRRTWLVNFGEVPSPGLTNDGMPDH; Peptide with targeting and/or antimicrobial activity),A. naeslundii,–
PF-C034 (HPMPITVRSRKPGPLTAPSEH; Peptide with targeting and/or antimicrobial activity),S. mutans; also recorded: E. coli,–
PF-C045 (FREGMGWPLSNEGSPTAPLPKHRNQV; Peptide with targeting and/or antimicrobial activity),A. naeslundii; also recorded: T. denticola,–
PF-C050 (QGLARPVLRRIPL; Peptide with targeting and/or antimicrobial activity),A. naeslundii; also recorded: S. mutans,–
PF-C063 (SHFRKGD; Peptide with targeting and/or antimicrobial activity),A. naeslundii; also recorded: F. nucleatum; also recorded: S. mutans,–

Substance,Target(s) (microorganisms [1]; [3]),further results
PF-C068 (LNLFASI; Peptide with targeting and/or antimicrobial activity),A. naeslundii; also recorded: F. nucleatum; also recorded: S. mutans,–
PF-C080 (INIPGLF; Peptide with targeting and/or antimicrobial activity),A. naeslundii; also recorded: F. nucleatum; also recorded: S. mutans,–
PF-C093 (EKLGTMV; Peptide with targeting and/or antimicrobial activity),A. naeslundii; also recorded: F. nucleatum; also recorded: S. mutans,–
PF-C134 (NELMKYPATLTATATTPGIKYSHLCSVCL; Peptide with targeting and/or antimicrobial activity),A. naeslundii; also recorded: F. nucleatum; also recorded: P. gingivalis; also recorded: S. mutans; also recorded: T. denticola,–
PF-C160 (AASGFTYCASNGVWHPY; Peptide with targeting and/or antimicrobial activity),F. nucleatum,–
PF-C259 (AEIQPHCLSVL; Peptide with targeting and/or antimicrobial activity),F. nucleatum; also recorded: S. mutans,–
PF-C271 (FFPSYYSIIITYF; Peptide with targeting and/or antimicrobial activity),A. naeslundii; also recorded: F. nucleatum; also recorded: P. gingivalis; also recorded: S. mutans; also recorded: T. denticola,–
PF-C273 (KNMLKRRMKQKRLFDEEDRLRVLSKYTKSYY; Peptide with targeting and/or antimicrobial activity),A. naeslundii; also recorded: P. gingivalis; also recorded: S. mutans; also recorded: T. denticola,–
PF-C285 (FTIIELKKQKIKHGENNKKTAHPLNEPFCARA; Peptide with targeting and/or antimicrobial activity),A. naeslundii; also recorded: F. nucleatum; also recorded: P. gingivalis; also recorded: S. mutans; also recorded: T. denticola,–
PF-S004 (VLLNIFRTLLEFFSPSNAPGAEDVPLPDTQA; Peptide with targeting and/or antimicrobial activity),S. epidermidis and MRSA and C. jeikeium,–
PF-S007 (VVAGVVLLTALAVGSKRKEKKQIKEIQRLLAATR; Peptide with targeting and/or antimicrobial activity),S. epidermidis and MRSA,–
PF-S015 (IENLERGARRPP; Peptide with targeting and/or antimicrobial activity),S. epidermidis and MRSA and C. jeikeium,–
PF-S018 (GMPQIPRLRI; Peptide with targeting and/or antimicrobial activity),S. epidermidis and M. luteus and C. albicans and MRSA and E. faecalis and C. jeikeium and C. jejuni,–
PF-S023 (MAEDERRALKRRTNRGRTRTRKRITV; Peptide with targeting and/or antimicrobial activity),S. epidermidis and MRSA,–
PF-S024 (SKRGRKRKDRRKKKANHGKRPNS; Peptide with targeting and/or antimicrobial activity),–,Target(s) (microorganisms [1]; [4]): Corynebacteria
PF-S026 (TELKYNGEEYLLLTQRDILAVIEK; Peptide with targeting and/or antimicrobial activity),S. epidermidis and MRSA and C. jeikeium,–
PF-S029 (TSDTQSQSPWLFDNADIVNIYPVQLMHSSDND; Peptide with targeting and/or antimicrobial activity),M. luteus; also recorded: P. mirabilis; also recorded: E. coli; also recorded: C. albicans; also recorded: C. jeikeium; also recorded: C. jejuni,–
Py Pf 12 ([dS]KG[Orn][dS]SGK[dOrn]ES; not fully specified (bridges)),–,Target(s) (microorganisms [1]; [4]): P. fluorescens
TT-305 (ARNALNMRDVPVDAAIIGIIDGMDEE; Peptide with targeting and/or antimicrobial activity),–,Target(s) (microorganisms [1]; [4]): F. nucleatum
TT-306 (KILNEAEGKLLKVIEKNGEIDIEEI; Peptide with targeting and/or antimicrobial activity),–,Target(s) (microorganisms [1]; [4]): F. nucleatum
TT-307 (NGDKKAKEELDKWDEVIKELNIQF; Peptide with targeting and/or antimicrobial activity),–,Target(s) (microorganisms [1]; [4]): F. nucleatum
TT-308 (GLVIIPNLIALIILFSQVRQQTKDYFSNPKLSSR; Peptide with targeting and/or antimicrobial activity),–,Target(s) (microorganisms [1]; [4]): F. nucleatum
TT-309 (EPLPLTKYDKKDTEMKKVFKEILAGKVGYEKEEE; Peptide with targeting and/or antimicrobial activity),–,Target(s) (microorganisms [1]; [4]): F. nucleatum
TT-310 (TKLKKNNKLLSAKKENTLHTKDK; Peptide with targeting and/or antimicrobial activity),–,Target(s) (microorganisms [1]; [4]): F. nucleatum
TT-311 (AIFDAMHNL; Peptide with targeting and/or antimicrobial activity),–,Target(s) (microorganisms [1]; [4]): S. mutans; also recorded: S. sobrinus

# Source: patent publication US20110039763A1, “TARGETED ANTIMICROBIAL MOIETIES” (C3 JIAN, INC., priority 2009, published 2011)
